Results on six molecules are retold here after patent publication US4740233A, “Substituted 1,2,4-triazolo[1,5-a]-pyrimidine-2-sulfonamides and compositions and methods of controlling undesired vegetation and suppressing the nitrification of ammonium nitrogen in soil” (The Dow Chemical Company, priority 1986, dated 1988).

The subject of one assay is crabgrass. Nature of the assay: Postemergent control of plant species. The assay is classed as in vivo, Digitaria spp. The note with it: Digitaria sanguinalis, post-emergence, 336 h, read-out: percent postemergent control. Put shortly:
(§1)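 Compounds were taken up in acetone at twice the final concentration, then diluted with an equal volume of water containing 0.1% surfactant and sprayed onto greenhouse-grown plants at the 2-4 leaf stage. Plants were kept about two weeks under growth conditions; control is growth reduction relative to untreated plants of the same species.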

Another assay has as its system cocklebur. Briefly: Postemergent control of plant species. In kind it is in vivo, Xanthium spp. The note with it: Xanthium strumarium, post-emergence, 336 h, read-out: percent postemergent control. An outline of the steps: as §1
The test system of a further assay is cotton. Nature of the assay: Postemergent control of plant species. The note with it: Gossypium hirsutum, post-emergence, 336 h, read-out: percent postemergent control. In kind it is in vivo, Gossypium spp. Put shortly: as §1
The next assay relates to corn. Briefly: Postemergent control of plant species. In kind it is in vivo, Zea mays. The note with it: Zea mays, post-emergence, 336 h, read-out: percent postemergent control. An outline of the steps: as §1
The subject of a further assay is barnyardgrass. Briefly: Postemergent control of plant species. The assay is classed as in vivo, Echinochloa crusgalli. Particulars: Echinochloa crus-galli, post-emergence, 336 h, read-out: percent postemergent control. An outline of the steps:
as §1

In the next assay the test system is wild oats. Briefly: Postemergent control of plant species. Particulars: Avena fatua, post-emergence, 336 h, read-out: percent postemergent control. The assay is classed as in vivo, Avena fatua. Put shortly: as §1
For the next assay, the system named is sugar beet. Briefly: Postemergent control of plant species. Particulars: Beta vulgaris, post-emergence, 336 h, read-out: percent postemergent control. In kind it is in vivo, Beta saccharifera. Put shortly:
as §1

In the next assay the test system is yellow foxtail. Nature of the assay: Postemergent control of plant species. In kind it is in vivo, Setaria lutescens. Particulars: Setaria, post-emergence, 336 h, read-out: percent postemergent control. An outline of the steps: as §1
For a further assay, the system named is velvetleaf. Nature of the assay: Postemergent control of plant species. The assay is classed as in vivo, Abutilon theophrasti. The note with it: Abutilon theophrasti, post-emergence, 336 h, read-out: percent postemergent control. Put shortly:
as §1

Another assay relates to jimsonweed. Nature of the assay: Postemergent control of plant species. In kind it is in vivo, Datura stramonium. Particulars: Datura stramonium, post-emergence, 336 h, read-out: percent postemergent control. An outline of the steps: as §1
For another assay, the system named is annual morning glory. Nature of the assay: Postemergent control of plant species. In kind it is in vivo, Ipomoea spp. The note with it: Ipomoea, post-emergence, 336 h, read-out: percent postemergent control. An outline of the steps:
as §1

Another assay deals with rape. Nature of the assay: Postemergent control of plant species. In kind it is in vivo, Brassica napus. The note with it: Brassica napus, post-emergence, 336 h, read-out: percent postemergent control. Put shortly: as §1
Another assay has as its system pigweed. Nature of the assay: Postemergent control of plant species. The assay is classed as in vivo, Amaranthus spp. The note with it: Amaranthus retroflexus, post-emergence, 336 h, read-out: percent postemergent control. Put shortly:
as §1

Another assay concerns johnson grass. Nature of the assay: Postemergent control of plant species. The assay is classed as in vivo, Sorghum halepense. Particulars: Sorghum halepense, post-emergence, 336 h, read-out: percent postemergent control. Put shortly: as §1
For a further assay, the system named is soybean. Nature of the assay: Postemergent control of plant species. The assay is classed as in vivo, Glycine max. The note with it: Glycine max, post-emergence, 336 h, read-out: percent postemergent control. Put shortly:
as §1

The subject of another assay is rice. Briefly: Postemergent control of plant species. In kind it is in vivo, Oryza sativa. Particulars: Oryza sativa, post-emergence, 336 h, read-out: percent postemergent control. Put shortly: as §1
Another assay has as its system sorghum. Briefly: Postemergent control of plant species. In kind it is in vivo, Sorghum vulgare. Particulars: Sorghum, post-emergence, 336 h, read-out: percent postemergent control. An outline of the steps:
as §1

Assay [1] deals with nitrification of ammonium nitrogen. Nature of the assay: Suppression of nitrification of ammonium nitrogen in soil. Particulars: 27° C. Put shortly: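 Value is % NH4-N remaining after a two-week, 27° C incubation of treated soil held at 1/3 bar tension moisture. Nitrate was measured with an ion-selective electrode after extraction with ammonium sulfate solution and 10 min shaking.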

Another assay deals with wheat. Briefly: Postemergent control of plant species. Particulars: Triticum aestivum, post-emergence, 336 h, read-out: percent postemergent control. In kind it is in vivo, Triticum aestivum. Put shortly:
as §1

A further assay deals with yellow nutsedge. Briefly: Postemergent control of plant species. The note with it: Cyperus, post-emergence, 336 h, read-out: percent postemergent control. In kind it is in vivo, Cyperus esculentus. An outline of the steps: as §1

Regarding `Cc1cc(C)n2nc(S(=O)(=O)Nc3ccc(F)cc3Cl)nc2n1` [Compound 30], the pest or weed control at 500 ppm in the assay on crabgrass was 0%; in the assay on cocklebur, 40%; in the assay with barnyardgrass, 0%; with wild oats, 0%; in the assay on yellow foxtail, 0%; in the assay with velvetleaf, 40%. In addition, the pest or weed control at 500 ppm with jimsonweed is 0%; with annual morning glory, 60%; in the assay with pigweed it was 0%; in the assay with johnson grass, 0%; with yellow nutsedge, 0%. For the same molecule, the plant injury at 500 ppm in the assay on cotton came to 0%; in the assay with corn, 0%; in the assay with sugar beet, 0%; with rape, 40%; with soybean, 30%; in the assay with rice, 20%. Further, the plant injury at 500 ppm in the assay with sorghum and with wheat was 0% throughout. In addition, the “% NH4-N Remaining After 2 Weeks Incubation” value in assay [1] (0.01 ppm) amounted to 0%; in assay [1] (0.1 ppm), 6%; in [1] (1 ppm), 54%; in assay [1] (10 ppm) it was 81%.
For the molecule `Cc1cc(C)n2nc(S(=O)(=O)Nc3c(Cl)cccc3CO)nc2n1` [Compound 93], the pest or weed control at 500 ppm worked out at 0% in the assay with crabgrass; 80% in the assay with cocklebur; 0% in the assay on barnyardgrass; 0% with wild oats; 0% in the assay with yellow foxtail; 20% in the assay on velvetleaf. For the same molecule, the pest or weed control at 500 ppm is 80% in the assay on jimsonweed; 0% in the assay with annual morning glory; 70% with pigweed; 0% in the assay with johnson grass; 15% with yellow nutsedge. Besides, the plant injury at 500 ppm is 0% in the assay on cotton; 0% in the assay with corn; 70% in the assay on sugar beet; 70% in the assay on rape; 90% in the assay with soybean; 0% with rice. Further, the plant injury at 500 ppm in the assay on sorghum and in the assay with wheat was 0% in each case. The “% NH4-N Remaining After 2 Weeks Incubation” value is on record as 79% in [1] (0.06 ppm), 57% in assay [1] (0.25 ppm), 64% in assay [1] (1 ppm) and 89% in assay [1] (4 ppm).
Consider `Cc1nc2nc(S(=O)(=O)Nc3ccccc3C(F)(F)F)nn2c2c1CCC2` [Compound 106], for which the pest or weed control at 500 ppm with crabgrass was determined as 0%; in the assay on cocklebur it was 90%; in the assay with barnyardgrass it was 30%; in the assay with wild oats it was 30%; in the assay on yellow foxtail, 0%; in the assay with velvetleaf, 0%. In addition, the pest or weed control at 500 ppm in the assay on jimsonweed is 0%; in the assay on annual morning glory, 80%; in the assay with pigweed, 40%; in the assay on johnson grass, 90%; in the assay with yellow nutsedge, 0%. For the same molecule, the plant injury at 500 ppm in the assay on cotton is 30%; in the assay on corn it was 90%; with sugar beet, 0%; with rape it was 40%; in the assay with soybean, 90%; with rice, 30%. The plant injury at 500 ppm in the assay with sorghum was 40%; in the assay on wheat it was 20%. Further, the “% NH4-N Remaining After 2 Weeks Incubation” value worked out at 29% in assay [1] (0.01 ppm), 56% in assay [1] (0.1 ppm), 88% in [1] (1 ppm) and 96% in [1] (10 ppm).
Turning to `O=S(=O)(Nc1c(F)cccc1F)c1nc2ncc(Cl)cn2n1` [Compound 117, 6-chloro-N-(2,6-difluorophenyl)-1,2,4-triazolo[1,5-a]pyrimidine-2-sulfonamide], the pest or weed control at 500 ppm with crabgrass was 0%; with cocklebur, 100%; in the assay with barnyardgrass, 0%; in the assay on wild oats it was 0%; in the assay on yellow foxtail, 65%; in the assay with velvetleaf it was 100%. The pest or weed control at 500 ppm came to 100% in the assay on jimsonweed; 80% in the assay on annual morning glory; 75% in the assay on pigweed; 75% in the assay with johnson grass; 25% with yellow nutsedge. In addition, the plant injury at 500 ppm in the assay on cotton amounted to 90%; in the assay with corn it was 0%; in the assay with sugar beet it was 100%; with rape, 100%; in the assay on soybean, 35%; in the assay on rice, 0%. Moreover, the plant injury at 500 ppm came to 60% in the assay with sorghum and 0% in the assay with wheat. Also, the “% NH4-N Remaining After 2 Weeks Incubation” value in assay [1] (0.06 ppm) is 32%; in assay [1] (0.25 ppm), 24%; in [1] (1 ppm), 41%; in [1] (4 ppm), 72%.
For the molecule `COC(=O)c1c(NS(=O)(=O)c2nc3nc(C)ccn3n2)c(C)nn1C` [Compound 248], the pest or weed control at 500 ppm in the assay with crabgrass was determined as 0%; with cocklebur it was 0%; in the assay on barnyardgrass, 0%; in the assay on wild oats it was 0%; in the assay on yellow foxtail, 0%; with velvetleaf, 100%. Moreover, the pest or weed control at 500 ppm with jimsonweed, in the assay with annual morning glory, with pigweed, in the assay on johnson grass and in the assay with yellow nutsedge was 0% each time. Also, the plant injury at 500 ppm in the assay with cotton worked out at 50%; with corn, 0%; with sugar beet it was 75%; in the assay on rape, 100%; with soybean it was 40%; in the assay with rice, 50%. Moreover, the values for the plant injury at 500 ppm with sorghum and with wheat were 80% and 0%, respectively.
As to `COC(=O)c1nn(C)c(C)c1NS(=O)(=O)c1nc2nc(C)cc(C)n2n1` [Compound 250], the pest or weed control at 500 ppm came to 0% in the assay on crabgrass; 50% with cocklebur; 0% in the assay with barnyardgrass; 0% with wild oats; 0% in the assay on yellow foxtail; 70% with velvetleaf. The pest or weed control at 500 ppm in the assay on jimsonweed came out at 50%; in the assay on annual morning glory, 25%; in the assay with pigweed, 40%; in the assay with johnson grass, 0%; in the assay on yellow nutsedge, 0%. Moreover, the plant injury at 500 ppm in the assay with cotton is 0%; in the assay with corn, 0%; in the assay on sugar beet, 30%; with rape, 70%; in the assay on soybean, 50%; in the assay on rice, 0%. For the same molecule, the plant injury at 500 ppm in the assay with sorghum and with wheat was 0% in each case.
